1 compound from US6440389B1, “Fluorescent agents for real-time measurement of organ function” (The General Hospital Corporation, priority 2000, dated 2002) can be followed below.

This data set can be described thus: Fluorometric analysis, excitation and emission spectra. Format: physicochemical. The following applies: FIG. 4. The procedure:
For the synthesis of a nile blue-DTPA conjugate, 0.1 g of DTPA dianhydride (ccDPTA) was dissolved in 6 ml of dimethyl sulfoxide (DMSO) in a round bottom flask. Ninety mg of nile blue were dissolved in DMSO and 36 μL of triethyl amine were added, turning the solution purple. The nile blue solution was added drop wise to the solution of ccDTPA while stirring. The solution turned blue. Thirty-eight μL of […] (TEA) were added to the final mixture, turning the solution purple. After mixing, the mixture was heated to 60° C. and stirred for 2 hours. The reaction mixture was then loaded onto a silica gel column and eluted with acetone:ethylacetate. The fractions corresponding to the nile blue-DTPA conjugate were pooled and evaporated, yielding a magenta colored oil. The oil was rechromatographed on a second silica gel column using acetone as eluant. The nile blue-DTPA conjugated fractions were pooled and rotate-evaporated to give a magenta colored oil. […]
The only group of chelating agents known to produce highly soluble and stable lanthanide chelates are the polyamino polyacetic acid analogs. […] The simplest initial approach was to study the fluorescence characteristics of the chelate between Eu and other already commercially available polyaminopoly bis (2-aminoethyl ether) acetic acids. […]

Molecules are shown by their SMILES.

As for `CC[N+](CC)=c1ccc2nc3c(cc(N)c4ccccc43)oc-2c1` [nile blue], the emission fluorescence is 695 nm and the maximal excitation result is recorded as “approximately 390 nm”.
